The text below walks through data of paper PMC9132363 (Journal of Medicinal Chemistry, 2022).

The structures appear in SMILES notation. Where two headings read alike, the source gives them in different places.

For data set [1], the target named is T1, human serum albumin (HSA) (Homo sapiens, UniProt P02768). Kind of data set: biochemical.
Description: (§5) After each addition, the mixture was incubated at rt for 5 min, and then, the emission fluorescence spectra of HAS (λ = 280 nm) were measured using a Fluorometer Max-4P (Horiba Jobin Yvon). The data obtained were further processed using the Stern–Volmer and Scatchard models in GraphPad Prism 8.0 software.
Data set [2] addresses T1, human serum albumin (HSA). Kind of data set: Serum albumin binding by fluorescence quenching. Conditions: HSA 2 μM, λex 280 nm, λem 337 nm.
Description: as §5
The test system of the next data set is NRF2. Kind of data set: 3×ARE-LUC luciferase reporter assay. The class given is cell-based, human. The protocol:
Transient transfections of HEK293T cells were performed with the expression vectors for TK-Renilla (Promega, Madison, […]) and the expression vector ARE-LUC (Dr. J. Alam, Dept. of Molecular Genetics, Ochsner Clinic Foundation, New Orleans, LA). Cells were seeded on 24-well plates (75,000 cells per well), cultured for 16 h, and transfected using calcium phosphate. Eight hours after transfections, cells were treated with 3 different concentrations of the compounds (6, 20, and 60 μM). […] After 16 h, the cells were lysed and assayed with a dual-luciferase assay system (Promega) according to the manufacturer’s instructions. Relative light units were measured in a GloMax 96 microplate luminometer with dual injectors (Promega).
In general terms: In a reporter assay the amount or activity of a reporter protein is the signal.

Data set [3] has as its system TDP-43 in lymphoblasts from ALS patients. Kind of data set: TDP-43 phosphorylation and expression in lymphoblasts (immunoblot). The class given is cell-based, human. Conditions: 20 µM, 24 hours. As for the experimental part:
Figure S1. Lack of effect of compound 1d against aberrant TDP-43 phosphorylation in sporadic ALS and […]
Representative immunoblot showing the phosphorylation status of TDP-43 in immortalized lymphocytes from control and sporadic ALS individuals. Cells were seeded at an initial density of 1 x 106 x ml-1 in the absence or presence of compound 1d (20 µM). 24 hours after compound addition, cells were harvested and processed for Western blotting analysis. The plot in the left panel (a) represents the quantification of the bands of 43 KD of pTDP-43 normalized by total-TDP-43. The densitometric analyses represent the mean ± SEM of different observations carried […]
43 expression (b) in lymphoblasts from ALS patients.
(1 picture or pasted object on this page, not shown here)
In general terms: Immunoblotting shows a protein as a band on a membrane.

The next data set has as its target GSK-3β (Homo sapiens, UniProt P49841). Kind of data set: GSK-3β kinase inhibition. The data set is classed as biochemical.
Data set [4] in a line: Liver microsome stability assay. The following applies: human, pooled human liver microsomes, pH 7.4.
Description: This assay provides information on the metabolic stability of early drug discovery compounds based on liver microsomes. […] The reaction was initiated by adding NADPH (1 mM final concentration). Aliquots of 150 μL were collected at defined time points (0, 5, 15, 30, and 60 min) and added to cold acetonitrile (150 μL) containing an internal standard (5 μg/mL warfarin) to stop the reaction and precipitate the protein. […] Data were log transformed and represented as half-life. All experiments were conducted in duplicates.
A further data set has as its system control lymphoblasts. Nature of the data set: NRF2 pathway in control lymphoblasts. The data set is classed as cell-based, human. The following applies: 20 μM, 24 h. From the text:
(§1) Peripheral blood samples of all the individuals enrolled in this study were collected after written informed consent of the patients or their relatives (demographic information is presented in Table 9) to establish the lymphoblastoid cell lines (LCLs), by infecting peripheral blood lymphocytes with the Epstein–Barr virus (EBV), as previously described.[68] Participants or their relatives gave written informed consent. This study was approved by the Hospital Doce de Octubre and the Spanish Council of Higher Research Institutional Review Boards. All patients were diagnosed by applying the revised El Escorial criteria.[69] […] Genetic testing for SOD1, TARDBP, FUS, and C9ORF72 was performed in all cases.
(§2) LCLs were grown in suspensions in T flasks, in an RPMI-1640 medium containing 2 mM L-glutamine, 100 μg/mL streptomycin/penicillin, and 10% (v/v) fetal bovine serum (FBS) and maintained in a humidified 5% CO2 incubator at 37 °C.
(§3) Whole cell lysates were prepared in RIPA-buffer (25 mM Tris-HCl, pH 7.6, 150 mM NaCl, 1 mM EGTA, 1% Igepal, 1% sodium deoxycholate, 0.1% SDS, 1 mM PSMF, 1 mM Na3VO4, 1 mM NaF, 1 μg/mL aprotinin, 1 μg/mL leupeptin, and 1 μg/mL pepstatin). […] Immunoblots were analyzed as described previously.[48] […]
(§4) Total RNA extraction, reverse transcription, and quantitative polymerase chain reaction (PCR) were done as detailed in previous articles.[72] […]

The nature of data set [5]: DPPH radical scavenging assay. The class given is physicochemical. As for the experimental part:
The antioxidant activity was determined by the 2,2-diphenyl-1-picrylhydrazyl hydrate (DPPH) assay.[65]−[67] All the measurements were performed in an 80% MeOH solution, with the final reaction volume being 3 mL. A stock of DPPH solution in DMSO (10^–2 M) was prepared and stored at −20 °C, and the same procedure was performed with the antioxidant solution. Then, the DPPH stock solution was diluted to 2 mL with a final concentration of 150 μM (final volume of 3 mL and final concentration of 100 μM). The antioxidant stock was sequentially diluted to 1 mL at 3, 9, 30, 90, and 300 μM (final volume of 3 mL and final concentrations of 1, 3, 10, 30, and 100 μM). The mixture was incubated at room temperature for 30 min. Once this time had passed, the absorbance was measured in a spectrophotometer at 517 nm. Trolox, caffeic acid, and ferulic acid were used as a standard (1, 3, 10, 30, and 100 μM final concentrations). A blank using 80% MeOH solution instead of the corresponding antioxidant was used in each assay. Two independent measurements of each sample were performed. Data were processed using Origin software, and sigmoidal fitting according to the DoseResp function was performed to extrapolate the IC50 (μM) of each antioxidant.
In general terms: The DPPH test is a chemical assay of radical scavenging.

Data set [6] relates to HMOX1/HO-1 and NQO1 in SH-SY5Y cells. Nature of the data set: NRF2 signature (qRT-PCR and immunoblot) in SH-SY5Y cells. The class given is cell-based. As for the experimental part: Whole cell lysates were prepared in RIPA-buffer (25 mM Tris-HCl, pH 7.6, 150 mM NaCl, 1 mM EGTA, 1% Igepal, 1% sodium deoxycholate, 0.1% SDS, 1 mM PSMF, 1 mM Na3VO4, 1 mM NaF, 1 μg/mL aprotinin, 1 μg/mL leupeptin, and 1 μg/mL pepstatin). Whole cell lysates, cytosolic and nuclear fractions containing 25 μg of whole proteins from SH-SY5Y, or lymphoblast-treated cells were loaded for SDS-PAGE electrophoresis. Immunoblots were analyzed as described previously.[48] The primary antibodies used are described in Supporting Information Table S4.
Total RNA extraction, reverse transcription, and quantitative polymerase chain reaction (PCR) were done as detailed in previous articles.[72] Primer sequences are shown in Supporting Information Table S5. Data analysis was based on the ΔΔCT method with normalization of the raw data to housekeeping genes (Applied Biosystems). All PCRs were performed in triplicates.

Another data set concerns sALS lymphoblasts. Nature of the data set: NRF2 pathway in sALS lymphoblasts. The data set is classed as cell-based, human. The following applies: 20 μM, 24 h, vs untreated sALS lymphoblasts.
From the text: as §1, §2, §3, §4

T1 sequence (P02768 25-609): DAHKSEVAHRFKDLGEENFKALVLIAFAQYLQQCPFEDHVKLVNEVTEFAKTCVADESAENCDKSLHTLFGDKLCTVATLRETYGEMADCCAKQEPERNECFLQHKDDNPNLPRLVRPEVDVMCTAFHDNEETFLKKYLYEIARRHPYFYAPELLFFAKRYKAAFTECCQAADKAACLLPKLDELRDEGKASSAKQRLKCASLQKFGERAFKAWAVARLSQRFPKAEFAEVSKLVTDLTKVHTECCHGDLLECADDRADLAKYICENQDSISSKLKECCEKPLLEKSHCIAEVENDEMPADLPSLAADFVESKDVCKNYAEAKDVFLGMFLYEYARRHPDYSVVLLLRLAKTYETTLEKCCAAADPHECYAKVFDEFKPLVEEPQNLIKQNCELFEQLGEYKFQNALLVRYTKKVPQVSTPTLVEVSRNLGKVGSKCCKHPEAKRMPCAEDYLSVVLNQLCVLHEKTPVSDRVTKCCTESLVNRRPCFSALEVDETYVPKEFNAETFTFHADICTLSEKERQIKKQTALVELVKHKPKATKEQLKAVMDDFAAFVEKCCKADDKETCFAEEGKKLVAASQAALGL
Sequence of GSK-3β (P49841 whole entry, species assumed): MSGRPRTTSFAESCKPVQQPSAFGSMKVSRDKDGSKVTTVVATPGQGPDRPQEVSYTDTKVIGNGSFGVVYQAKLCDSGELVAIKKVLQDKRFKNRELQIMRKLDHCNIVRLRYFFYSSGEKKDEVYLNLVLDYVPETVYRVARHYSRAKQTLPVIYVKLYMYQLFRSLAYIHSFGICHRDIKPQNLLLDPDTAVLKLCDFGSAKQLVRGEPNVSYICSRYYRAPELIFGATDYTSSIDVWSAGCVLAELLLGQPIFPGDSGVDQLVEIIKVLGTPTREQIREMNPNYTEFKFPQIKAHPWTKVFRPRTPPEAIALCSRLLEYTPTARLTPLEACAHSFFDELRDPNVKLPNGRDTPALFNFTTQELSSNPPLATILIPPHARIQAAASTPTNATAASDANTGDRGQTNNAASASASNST

Usually Kd stands for the constant that tells how readily two partners part at equilibrium. A high value points to a looser complex. As usually defined, the half-life is how long it takes for the measured level to halve. A high value points to slow decline. As usually defined, the EC50 is the concentration that produces a half-maximal response. A word on the IC50: it is the point on the concentration scale where inhibition reaches its midpoint. A high value points to a need for much substance. As for `O=C(CCc1ccc(O)c(O)c1)N1CCCN(S(=O)(=O)c2cccc3cnccc23)CC1` [Compound 1d, 3-(3,4-Dihydroxyphenyl)-1-(4-(isoquinolin-5-ylsulfonyl)-1,4-diazepan-1-yl)propan-1-one], binding in data set [1] was put at a Kd of 1260 nM. Besides, the “Stern–Volmer quenching constant KSV” value in data set [2] is reported as 1.68 × 10^5 L mol^–1. In addition, in the data set on NRF2 (HEK293T, 3×ARE-LUC), the “NRF2 induction, CD (concentration needed to double luciferase expression)” value stood at 1 µM. In addition, the fold induction at 20 µM with NRF2 (Homo sapiens, 16 h, 20 microM, supplementary CSV, read-out: NRF2 induction @ 20 microM (fold change)) is 4.4 ± 0.27. Also, the fold induction at 6 µM with NRF2 (Homo sapiens, HEK-293T, 6 µM, HEK293T, 16 h, read-out: Luciferase assay response) amounted to 2.5 ± 0.05. The fold induction at 20 µM in the data set on NRF2 (Homo sapiens, HEK-293T, 20 µM, HEK293T, 16 h, read-out: Luciferase assay response) was 4.4 ± 0.27. In addition, the fold induction at 60 µM in the data set with NRF2 (Homo sapiens, HEK-293T, 60 µM, HEK293T, 16 h, read-out: Luciferase assay response) turned out to be 13.6 ± 1.6. For the same compound, the “activation of the NRF2 reporter” value in the data set on NRF2 (in words, 6, 20 and 60 μM) is on record as “dose-dependent activation”. Also, in [3], the “ability to reduce TDP-43 expression” value is “negative results” and the “ability to reduce aberrant TDP-43 phosphorylation” value is recorded as “negative results”. In addition, on GSK-3β, the “activity as an inhibitor of the kinase GSK-3β” value is “negative results”. Also, the half-life at 1 h, 8 µM in data set [4] was determined as 35.7 min. In the data set with control lymphoblasts, the “NEF2L2 mRNA levels” value is given as “did not produce changes” and the “levels of the NRF2 protein” value is reported as “significantly increased”. The EC50 in [5] (80% MeOH, 30 min, 517 nm, read-out: Radical scavenging activity EC50 (DPPH method)) stood at 9.68 µM. The compound also returned an IC50 in data set [5] (supplementary CSV) of 10.4 ± 0.7 µM. Also, in [6] (20 μM, 4, 8 and 24 h), the “mRNA levels of HMOX1 and NQO1” value is on record as “increased the mRNA levels”. In addition, the “protein levels of HO-1 and NQO1” value in data set [6] (20 μM, maximum after 24 h) is recorded as “increase in the protein levels”. Further, the “NRF2 and activity of its signaling pathway” value in the data set with sALS lymphoblasts was “did not produce a significant increase”.
